Measured values from publication PMC9320607, “Synthesis, Biological Evaluation and Docking Studies of Ring-Opened Analogues of Ipomoeassin F” (Molecules, 2022).
“Also recorded” adds a separate entry of the source. Like-named read-outs stand apart in the source and are kept apart here.

Assays:
MDA-MB-231 cells = experiment: Resazurin-based cytotoxicity assay in MDA-MB-231 cells; type: cell-based, human; conditions: for IC50: Homo sapiens
Text: (§1) To investigate the impact of ring-opening, we first submitted the open-chain analogue 1 [9] to the National Cancer Institute (NCI) 60-cell line screening (Supplementary Material S1) and determined the cytotoxicity of nine newly synthesized open-chain analogues 4–12 (Figure 2, Supplementary Materials S2 and S3) against MDA-MB-231 cells (Table S1). […] Furthermore, the majority of the nine new open-chain analogues were modestly less cytotoxic towards MDA-MB-231 cells when compared to their direct ring-closed counterparts (analogues 13–21 matching with 4–12; Figures S1 and S2 and Table S1).
The human breast cancer cell line (MDA-MB-231) was maintained in a DMEM high glucose culture medium supplemented with 10% (v/v) fetal bovine serum (FBS) and 2 mM L-glutamine. Parental (Sec61α-WT) HCT-116 (human colorectal cancer cells, ATCC, CCL-247) and mutant (Sec61α-G80W) HCT-116 cells were maintained in McCoy’s 5A (modified) medium ((ThermoFisher, Waltham, MA, USA, 16600-082)) supplemented with 10% (v/v) FBS (Gibco, 10500-064) and 100 units/mL penicillin and […] streptomycin (Gibco, cat: 15140-122). All cell lines were maintained in a 5% CO2 humidified incubator at 37 °C. Cytotoxicity assays were performed in triplicate sets as previously described and viable cells were counted using an automated cell counter (Bio-Rad TC20) immediately before each experiment. Compound stock solutions in DMSO (10 mM) were diluted with supplemented culture media (MDA-MB-231 cells: high glucose DMEM; HCT116 Sec61α-WT and Sec61α-G80W cells: McCoy’s (modified) 5A) to make a series of gradient fresh working solutions at equal DMSO percentage immediately prior to each test. First, […] of cells at a cell density of […] (MDA-MB-231 cells) or 2.5 × 10^4 cells/mL (Sec61α-WT or Sec61α-G80W HCT-116 cells) were seeded in black 96-well microtiter plates (Falcon, product 353219; 2500 cells/well) and incubated at 37° C for 24 h. Subsequently, the cells were treated with either […] of the freshly made gradient working solution in a total volume of […]/well (MDA-MB-231 cells) or 25 mL of freshly made gradient in a total volume of […]/well (Sec61α-WT or Sec61α-G80W HCT-116 cells) at 37 °C for 72 h. For MDA-MB-231 cells, the media were discarded and […] fresh medium containing 10% (v/v) alamarBlue HS cell viability reagent (resazurin stock solution) (ThermoFisher, Waltham, MA, USA, A50100) was added to each well. For Sec61α-WT or Sec61α-G80W HCT-116 cells, the media was not discarded and alamarBlue HS cell viability reagent (resazurin stock solution) (ThermoFisher, Waltham, MA, USA, A50100) was added to 10% (v/v). After that, all cells were incubated at 37 °C for a further 1–3 h and the emission of each well at 620 nm was detected using a Synergy H1 Hybrid multi-mode plate reader (BioTek, Agilent Technologies, Palo Alto, CA, USA) at excitation 580 nm. […] IC50 value estimates were determined using nonlinear regression to fit data to a curve of variable slope (four parameters) using the least-squares fitting method. For HCT-116 cell IC50 curves, the top and bottom plateaus were defined as 100% and 23.70% (the mean of all data at 25 µM across all compounds), respectively.

[1] = biological target: T1, Sec61-mediated protein translocation (membrane integration of Ii) (Canis lupus familiaris, UniProt P38377); experiment: In vitro membrane insertion assay of Ii with ER microsomes; type: biochemical, canine; conditions: for inhibition of in vitro membrane integration of Ii / reduction in Ii membrane integration: 1 µM compound; for inhibition of in vitro membrane integration of Ii: versus DMSO control
T1 construct: cell-free translation system supplemented with ER microsomes derived from canine pancreas; from tissue; host or cells: canine pancreas ER microsomes (nuclease-treated); the Ii substrate was translated in vitro from T7-transcribed RNA
T1 sequence (P60058 whole entry): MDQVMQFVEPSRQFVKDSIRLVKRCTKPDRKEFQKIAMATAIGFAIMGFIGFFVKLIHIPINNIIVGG
T1 sequence (P38377 2-476): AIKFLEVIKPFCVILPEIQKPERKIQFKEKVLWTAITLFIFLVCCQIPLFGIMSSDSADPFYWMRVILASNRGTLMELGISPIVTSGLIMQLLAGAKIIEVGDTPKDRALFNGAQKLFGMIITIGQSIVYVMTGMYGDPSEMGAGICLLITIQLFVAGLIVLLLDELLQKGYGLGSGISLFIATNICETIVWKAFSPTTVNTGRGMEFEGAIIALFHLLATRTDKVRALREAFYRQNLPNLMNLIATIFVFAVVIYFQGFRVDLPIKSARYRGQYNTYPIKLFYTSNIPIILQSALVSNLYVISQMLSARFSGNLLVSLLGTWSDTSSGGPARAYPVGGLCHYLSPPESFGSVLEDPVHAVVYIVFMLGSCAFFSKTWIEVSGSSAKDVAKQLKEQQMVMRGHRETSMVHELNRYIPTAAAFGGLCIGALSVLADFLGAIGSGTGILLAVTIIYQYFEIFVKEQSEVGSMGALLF
T1 sequence (P60467 2-96, further chain): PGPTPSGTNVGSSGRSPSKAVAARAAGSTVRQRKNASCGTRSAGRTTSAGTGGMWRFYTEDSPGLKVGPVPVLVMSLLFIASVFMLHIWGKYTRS
Text: Having previously established that the principal molecular basis for the cytotoxicity of Ipom-F is its strong, yet reversible, binding to Sec61α and the resultant wide-ranging blockade of Sec61-mediated protein translocation at the ER [13], we sought evidence that this mechanism also underlies the cytotoxic effects of 1 and other open-chain analogues. […] For comparative purposes, we analyzed the effects of 2 [13] and two closed-chain compounds: Ipom-F and the diester-modified analogue 22 [11] in parallel (Figure 3A).
Following the resolution of radiolabeled proteins by SDS-PAGE (Figure 3B), we used the efficiency with which the N-terminal domain of the type II integral membrane protein Ii (short form of HLA class II histocompatibility antigen gamma chain, isoform 1) was N-glycosylated inside the ER lumen as a robust reporter for the authentic membrane integration of this model Sec61-dependent protein client (Figure 3B, right upper panel, 0Gly versus 2 Gly forms).
Linear DNA of the short form of human HLA class II histocompatibility antigen gamma chain (Ii; P04232, […], residues 17–232) or human glycophorin C (GypC; P04921) were generated by PCR and transcribed into RNA using T7 RNA polymerase (Promega). Membrane insertion assays (20 µL, 1 h at 30 °C, containing 6.5% (v/v) nuclease-treated ER microsomes (from stock with OD280 = 44/mL)), endoglycosidase Hf (New England Biolabs) treatment, sample resolution by SDS-PAGE (16% polyacrylamide gels) and gel drying were performed as previously described. Following exposure to a phosphorimaging plate for 24–72 h, radiolabeled products were visualized using a Typhoon FLA-7000 (GE Healthcare, Tokyo, Japan) and the ratio of the signal intensity for the N-glycosylated (XGly) and non-glycosylated (0Gly) forms obtained using AIDA v.5.0 (Raytest Isotopenmeβgeräte). This value was then expressed relative to the matched DMSO control (set to 100%) in order to estimate the mean relative insertion (± SEM) from insertion experiments performed in triplicate (n = 3, biologically independent experiments). IC50 value estimates were determined in Prism 8 (GraphPad, San Diego, CA, USA) using nonlinear regression to fit data to a curve of variable slope (four parameters) using the least-squares fitting method, with the top and bottom plateaus of the curve defined as 100% and 7.67% (the mean of all data at 500 µM across all compounds), respectively.

HCT116 Sec61α-WT cells = experiment: Resazurin-based cell viability assay in HCT116 Sec61α-WT cells; parameters: species or system human; conditions: for cell death: 50 nM, 72 h; for IC50: Homo sapiens
Method: Parental (Sec61α-WT) […] All cell lines were maintained in a 5% CO2 humidified incubator at 37 °C. Cytotoxicity assays were performed in triplicate sets as previously described and viable cells were counted using an automated cell counter (Bio-Rad TC20) immediately before each experiment. Compound stock solutions in DMSO (10 mM) were diluted with supplemented culture media (MDA-MB-231 cells: high glucose DMEM; HCT116 Sec61α-WT and Sec61α-G80W cells: McCoy’s (modified) 5A) to make a series of gradient fresh working solutions at equal DMSO percentage immediately prior to each test. […] For MDA-MB-231 cells, the media were discarded and […] fresh medium containing 10% (v/v) alamarBlue HS cell viability reagent (resazurin stock solution) (ThermoFisher, Waltham, MA, USA, A50100) was added to each well. For Sec61α-WT or Sec61α-G80W HCT-116 cells, the media was not discarded and alamarBlue HS cell viability reagent (resazurin stock solution) (ThermoFisher, Waltham, MA, USA, A50100) was added to 10% (v/v). After that, all cells were incubated at 37 °C for a further 1–3 h and the emission of each well at 620 nm was detected using a Synergy H1 Hybrid multi-mode plate reader (BioTek, Agilent Technologies, Palo Alto, CA, USA) at excitation 580 nm. […] IC50 value estimates were determined using nonlinear regression to fit data to a curve of variable slope (four parameters) using the least-squares fitting method.

NCI 60-cell line = NCI 60-cell line screening; type: cell-based, human; conditions: for GI50: Homo sapiens, read-out: average GI50
Text: as §1

[2] = MDA-MB-231, MDA-MB-231 cells, at least three independent experiments, read-out: IC50 ± SD, ring-open
[3] = Table 1, Ii membrane integration, read-out: In Vitro Translocation Inhibition (IC50)
[4] = HCT-116, Table 1, HCT116 Sec61α-WT cells, read-out: Cytotoxicity HCT-116 Cells (IC50)
[5] = MDA-MB-231, 72 h, MDA-MB-231 cells, 72 h, read-out: IC50 (cytotoxicity)

inhibition of in vitro membrane integration of Ii [1]	IC50 [1, 3]	Compound	IC50 (MDA-MB-231 cells; [2])	cell death (HCT116 Sec61α-WT cells; HCT116 Sec61α-WT cells)	IC50 (HCT116 Sec61α-WT cells; [4])	IC50 (MDA-MB-231 cells; [5])	also measured
		C=CCCCC(=O)CCC(=O)OCC1OC(OC2C(OC(CC=C)CCCCC)OC(C)C(OC(C)=O)C2O)C(O)C(O)C1OC(=O)C=Cc1ccccc1 (centres unmarked) [analogue 11]	6320 nM				
		C=CCCCC(=O)CCC(=O)OCC1OC(OC2C(OC(CC=C)CCCCC)OC(C)C(OC(C)=O)C2O)C(O)C(OC(=O)C(C)=CC)C1OC(=O)CCc1ccccc1 (centres unmarked) [analogue 9]	2170 nM				
efficiently, albeit variably, inhibited	334 nM	C/C=C(\C)C(=O)O[C@@H]1[C@@H](O)[C@@H]2O[C@H]3[C@H](O[C@@H](CCCCC)CCCCCOC(=O)CCC(=O)OC[C@@H](O2)[C@H]1OC(=O)/C=C/c1ccccc1)O[C@H](C)[C@H](OC(C)=O)[C@@H]3O [analogue 22]		48–64%	70 nM		
efficiently, albeit variably, inhibited	202 nM	C/C=C(\C)C(=O)O[C@@H]1[C@@H](O)[C@H](O[C@H]2[C@H](O[C@H](CCC)CCCCC)O[C@H](C)[C@H](OC(C)=O)[C@@H]2O)O[C@H](COC(=O)CCC(=O)CCCCC)[C@H]1OC(=O)/C=C/c1ccccc1 [analogue 2]		48–64%	41 nM		reduction in Ii membrane integration [1]: 73–86%
		C=CCCCC(=O)CCC(=O)OCC1OC(OC2C(OC(CC=C)CCCCC)OC(C)C(OC(C)=O)C2O)C(O)C(OC(=O)C(C)=CC)C1O (centres unmarked) [analogue 12]	5600 nM				
		C#CCOc1ccc(C=CC(=O)OC2C(COC(=O)CCC(=O)CCCC=C)OC(OC3C(OC(CC=C)CCCCC)OC(C)C(OC(C)=O)C3O)C(O)C2OC(=O)C(C)=CC)cc1 (centres unmarked) [analogue 4]	168 ± 19 nM			~168 nM	loss in activity when compared to 1 (MDA-MB-231 cells; MDA-MB-231 cells IC50): 3–4 fold
efficiently, albeit variably, inhibited	291 nM	C=CCCN(C)C(=O)CCC(=O)OCC1OC(OC2C(OC(CC=C)CCCCC)OC(C)C(OC(C)=O)C2O)C(O)C(OC(=O)C(C)=CC)C1OC(=O)C=Cc1ccccc1 (centres unmarked) [analogue 5]	43 ± 11 nM	48–64%	41 nM	~43 nM	reduction in Ii membrane integration [1]: 73–86%
efficiently, albeit variably, inhibited	562 nM	C=CCCCC(=O)CCC(=O)OC[C@H]1O[C@@H](O[C@H]2[C@H](O[C@H](CC=C)CCCCC)O[C@H](C)[C@H](OC(C)=O)[C@@H]2O)[C@H](O)[C@@H](OC(=O)/C(C)=C/C)[C@@H]1OC(=O)/C=C/c1ccccc1 [analogue 1]	59 ± 8.1 nM	48–64%	170 nM	~60 nM	GI50 (NCI 60-cell line; NCI 60-cell line screening, average over cell lines): ~135 nM; loss in potency when compared to Ipom-F (NCI 60-cell line; NCI 60-cell line average GI50): 4–5 fold; loss in potency when compared to Ipom-F (MDA-MB-231 cells; MDA-MB-231 cells IC50): 9 fold
		C=CCCCC(=O)CCC(=O)OCC1OC(OC2C(OC(CC=C)CCCCC)OC(C)C(O)C2O)C(O)C(OC(=O)C(C)=CC)C1OC(=O)C=Cc1ccccc1 (centres unmarked) [analogue 7]	3880 nM				
		C=CCCCC(=O)CCC(=O)OCC1OC(OC2C(OC(CC=C)CCCCC)OC(C)C(OC(C)=O)C2O)C(O)C(OC(=O)C(C)=CC)C1OC(=O)c1ccccc1 (centres unmarked) [analogue 8]	4610 nM				
		C=CCCCC(=O)CCC(=O)OCC1OC(OC2C(OC(CC=C)CCCCC)OC(C)C(OC(C)=O)C2O)C(O)C(OC(=O)C(C)=CC)C1OC(=O)C(C)=CC (centres unmarked) [analogue 10]	2740 nM				

Compound	inhibition of in vitro membrane integration of Ii [1]	IC50 [1, 3]	IC50 (MDA-MB-231 cells; [2])	cell death (HCT116 Sec61α-WT cells; HCT116 Sec61α-WT cells)	IC50 (HCT116 Sec61α-WT cells; [4])	IC50 (MDA-MB-231 cells; [5])	also measured
C=CCCCCCCC(=O)OCC1OC(OC2C(OC(CC=C)CCCCC)OC(C)C(OC(C)=O)C2O)C(O)C(OC(=O)C(C)=CC)C1OC(=O)C=Cc1ccccc1 (centres unmarked) [analogue 6]	did not; also recorded: negligible inhibition		205 ± 11 nM	~ 20%		~205 nM	loss in activity when compared to 1 (MDA-MB-231 cells; MDA-MB-231 cells IC50): 3–4 fold
C/C=C(\C)C(=O)O[C@@H]1[C@@H](O)[C@@H]2O[C@H]3[C@H](O[C@@H](CCCCC)CCCCCCC(=O)CCC(=O)OC[C@@H](O2)[C@H]1OC(=O)/C=C/c1ccccc1)O[C@H](C)[C@H](OC(C)=O)[C@@H]3O [Ipom-F, ipomoeassin F]	efficiently, albeit variably, inhibited			48–64%			GI50 (NCI 60-cell line; 60 cell): ~30 nM; IC50 [1]: 155 nM; reduction in Ii membrane integration [1]: 73–86%; IC50 (MDA-MB-231 cells; MDA-MB-231, 72 h, read-out: IC50 (cytotoxicity)): ~7 nM; IC50 (MDA-MB-231 cells; MDA-MB-231, read-out: IC50 ± SD, ring-closed): 6.5 ± 0.4 nM; IC50 (HCT116 Sec61α-WT cells; HCT-116, read-out: Cytotoxicity HCT-116 Cells (IC50)): 18 nM
